We go through one compound from patent publication US11142524B2, “Substituted-3H-imidazo[4,5-c]pyridine and 1H-pyrrolo[2,3-c]pyridine series of novel Ectonucleotide Pyrophosphatase/Phosphodiesterase-1 (ENPP1) and stimulator for interferon genes (STING) modulators as cancer immunotherapeutics” (Stingray Therapeutics, Inc., priority 2018, dated 2021).

For data set [1], the target named is T1, ENPP1 protein (Homo sapiens (Human), UniProt P22413). Briefly: ENPP1 Thermal Shift Assay (Example 1). The class given is binding. The procedure:
Assay Buffer (1 mM CaCl2, 0.2 mM ZnCl2, 50 mM Tris, pH 9.0) 5000×SYPRO Orange (ThermoFisher cat #S6651) 384-well PCR Plates
Each drug was prepared as a 10× solution in the assay buffer and SYPRO Orange was diluted to 10× concentration in water. Wells were set up in duplicate in a 384-well PCR plate as follows: 14 μL assay buffer, 2 μL ENPP1 Inhibitor or DMSO, 2 μL (0.5 μg) ENPP1 protein. Each well was mixed and incubated on ice for 5 minutes. Post incubation, 2 μL of SYPRO Orange was mixed into each well and followed by a gentle centrifugation. The protein melt reaction was run using ViiA7 software with temperatures beginning at 25° C. and increasing by 0.05° C./s to the maximum temperature of 99° C.
In a 384-well plate, 1.0 μg of ENPP1 protein incubated with 100 μM of the corresponding drug for 5 minutes. Each well exposed to increasing temperatures to determine an unfolding temperature of the protein.
Target sequence in this assay (P22413 whole entry, looked up, change not shown): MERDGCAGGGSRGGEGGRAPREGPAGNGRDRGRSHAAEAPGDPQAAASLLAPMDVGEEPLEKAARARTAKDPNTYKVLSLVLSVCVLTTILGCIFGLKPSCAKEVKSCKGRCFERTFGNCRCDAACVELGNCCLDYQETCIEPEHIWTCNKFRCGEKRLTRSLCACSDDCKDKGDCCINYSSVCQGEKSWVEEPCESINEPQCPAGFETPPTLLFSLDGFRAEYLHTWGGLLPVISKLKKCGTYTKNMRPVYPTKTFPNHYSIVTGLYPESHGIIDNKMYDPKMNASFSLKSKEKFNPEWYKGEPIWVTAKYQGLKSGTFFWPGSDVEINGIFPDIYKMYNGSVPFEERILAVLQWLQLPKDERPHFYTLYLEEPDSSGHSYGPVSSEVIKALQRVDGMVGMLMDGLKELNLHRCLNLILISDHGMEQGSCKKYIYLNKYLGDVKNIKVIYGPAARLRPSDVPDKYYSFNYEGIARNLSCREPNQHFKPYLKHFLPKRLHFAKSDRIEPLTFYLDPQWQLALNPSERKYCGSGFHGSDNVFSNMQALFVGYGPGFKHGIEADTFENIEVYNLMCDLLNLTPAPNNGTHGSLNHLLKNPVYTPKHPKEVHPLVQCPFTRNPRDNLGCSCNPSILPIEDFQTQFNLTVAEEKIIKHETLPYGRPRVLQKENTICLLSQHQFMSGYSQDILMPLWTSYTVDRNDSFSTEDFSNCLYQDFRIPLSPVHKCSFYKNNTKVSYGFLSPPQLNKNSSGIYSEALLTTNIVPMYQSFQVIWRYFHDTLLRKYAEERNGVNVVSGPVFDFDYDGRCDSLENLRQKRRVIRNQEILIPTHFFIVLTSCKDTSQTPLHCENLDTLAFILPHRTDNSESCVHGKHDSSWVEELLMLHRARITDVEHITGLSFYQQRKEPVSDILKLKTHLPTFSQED

Data set [2] deals with Saos-2 Cells. Briefly: ENPP1 Mineralization Assay. As to conditions: FIG. 9, mineralization components for 3 days. The class given is cell-based. The procedure: Saos-2 Cells (ATCC CAT #HTB-85). Culture Medium. 24-well Tissue Culture Plate. Ascorbic Acid, 5 mg/mL (100×). β-Glycerophosphate, 1M (100×). Phosphate Buffered Saline. Alizarin Red, 40 mM pH 4.2. 70% Ethanol. Dye Extraction Reagent, 10% Methanol+10% Acetic Acid
Saos-2 cells were plated at a density of 1.5×10^6 cells/well and allowed to grow to 100% confluency over the following 1-2 days. Once completely confluent, the media was replaced with fresh media supplemented with 1× ascorbic acid, 1× β-glycerophosphate, and varying concentrations of ENPP1 inhibitor (if applicable). The addition of the mineralization components was considered Day 1. On Day 3, the media was gently aspirated with no wash followed by the addition of fresh media, mineralization components, and ENPP1 inhibitor (if applicable). On day 5, the media was gently aspirated and the cells were washed twice with PBS. The cells were then fixed with ice cold 70% ethanol for 1 hour at 4° C. Cells were washed once with PBS and stained with Alizarin Red for 30 minutes at room temperature with gentle rotation. Stained cells were washed three times with water for 10 minutes at room temperature with gentle rotation. After imaging cells, dye extraction reagent was added to each well and incubated for 30 minutes at room temperature. Alizarin red was quantified by measuring absorbance at a wavelength of 405 nm using the Envision.
FIG. 9 depicts a picture of results of a similar SAOS-2 mineralization assay. SAOS-2 cell were cultured in the presence and absence of ENPP1 inhibitor (compound 78, 107-02 or 108) and exposed to mineralization components for 3 days.

The test system of data set [3] is IRF-3 reporter in THP1 WT and STING knockout cells. Briefly: THP1 IRF-3 Reporter Assay. The class given is cell-based. As to conditions: 10 μM, primed with 2′3′cGAMP, 24 hours (FIG. 10) or 72 hours (FIG. 11). On the procedure: FIGS. 10 and 11 depict results of a THP1 IRF-3 Reporter Assay. THP1 WT and STING knockout cells were primed with 2′3′cGAMP and treated with 10 μM ENPP1 inhibitors for 24 hours (FIG. 10) or 72 hours (FIG. 11). Media collected to determine induction of IRF-3 reporter using luminescence reagent QuantiLuc.
In general terms: In a reporter assay the amount or activity of a reporter protein is the signal.

Data set [4] concerns the target T1, ENPP1 protein. Briefly: ENPP1 enzymatic assay with TMP substrate (FIG. 8). Format: biochemical. As to conditions: 5.0 ng ENPP1, 150 μM TMP substrate. The procedure: FIG. 8 depicts results of a similar experiment. 5.0 ng of ENPP1 protein exposed to increasing doses of inhibitor (compound 78 or compound 107-02) for 10 minutes in solution, followed by the addition of 150 μM of TMP substrate. The assay was then incubated for 20 minutes and then read at 405 nm on the envision plate reader.
Target sequence in this assay (P22413 whole entry, looked up): as the sequence (P22413 whole entry, looked up, change not shown) above

Data set [5] deals with T2, Recombinant Human ENPP-1 Protein (purified in-house) (Homo sapiens (Human), UniProt P22413). Briefly: ENPP1 Assay (TMP), Example 2. The class given is biochemical. As to conditions: Table 5, TMP substrate; read-out: ENPP1 (IC50 μM) TMP. On the procedure:
Enzyme: 1 ng/μL Recombinant Human ENPP-1 Protein (purified in-house)—Assay Conc.: 5 ng/well of DMSO in 96-well clear assay plates.
(§1) A ten point serial dilution of drugs was prepared in 10× in assay buffer with the final assay concentrations starting at 10 μM, 3 μM, 1 μM, 0.3 μM . . . 0 μM. A dilution of DMSO was included as a control. The assay plate was set up as follows with each well in duplicate: 75 μL assay buffer+10 μL ENPP1 inhibitor or DMSO Dilutions+10 μL Substrate+5 μL Enzyme (5 ng). Both the enzyme and substrate were added to opposite sides of the well to ensure that there was no interaction until all wells had both components. The plate was then centrifuged gently for 10 seconds, followed by an incubation at 37° C. for 45 minutes. The reaction was quantified by measuring absorbance at 405 nm using the Envision Plate Reader.

In data set [6] the target is T2, Recombinant Human ENPP-1 Protein (purified in-house). Briefly: ENPP1 Assay (ATP), Example 2. The class given is biochemical. As to conditions: Table 5, ATP substrate; read-out: ENPP1 (IC50 μM) ATP. The procedure:
Assay Buffer: 1 mM CaCl2, 0.2 mM ZnCl2, 50 mM Tris, pH 9.0. Substrate: 100 μM Adenosine 5′-triphosphate disodium salt hydrate (Promega: V703A)—Assay Conc.: 10 μM. Enzyme: 1 ng/μL Recombinant Human ENPP-1 Protein (purified in-house)—Assay Conc.: 5 ng/well of DMSO in 96-well white assay plates. Cell Titer Glo (Promega, cat #G7572).
as §1, with “by” for “by an”, “RT” for “37° C.”, “20 minutes. To detect levels of ATP, Cell Titer Glo was added 1:1 to each well and incubated for 10” for “45”, “luminescence” for “absorbance at 405 nm”

Data set [7] is described as follows: Physicochemical profile of 107-02 (PSA, Log P, Log S, solubility).
For data set [8], the system named is Caco-2. Briefly: Caco-2 permeability. The class given is in vitro ADME. For orientation: Caco-2 cells form a polarised layer with tight junctions and transporters.
Data set [9] concerns the target PgP (Homo sapiens (Human), UniProt P08183). Briefly: PgP Inhibition. The class given is in vitro ADME.
The test system of data set [10] is ENPP. Briefly: Selectivity.
The nature of data set [11]: Mouse PK Profile. The class given is in vivo.
The test system of data set [12] is KPC mouse model of PDAC. Briefly: Tumor growth in KPC mouse model of PDAC. Format: in vivo. The conditions noted are these: once daily via IP at 20 mg/kg, FIG. 15B. From the text: FIG. 15A a pharmacokinetic (PK) plasma concentration chart for compound 107-02. FIG. 15B is a tumor growth inhibition curve for compound 107-02 following in vivo administration. […] FIGS. 15C and 15D are flowcytometric charts of excised tumors following administration of compound 107-02. At the end of the study, tumors were excised and analyzed for T-cells and tumor-associated macrophages using flow cytometry. *p<0.05.

T2 sequence (P22413 whole entry, looked up): as the sequence (P22413 whole entry, looked up, change not shown) above
Sequence of PgP (P08183 whole entry): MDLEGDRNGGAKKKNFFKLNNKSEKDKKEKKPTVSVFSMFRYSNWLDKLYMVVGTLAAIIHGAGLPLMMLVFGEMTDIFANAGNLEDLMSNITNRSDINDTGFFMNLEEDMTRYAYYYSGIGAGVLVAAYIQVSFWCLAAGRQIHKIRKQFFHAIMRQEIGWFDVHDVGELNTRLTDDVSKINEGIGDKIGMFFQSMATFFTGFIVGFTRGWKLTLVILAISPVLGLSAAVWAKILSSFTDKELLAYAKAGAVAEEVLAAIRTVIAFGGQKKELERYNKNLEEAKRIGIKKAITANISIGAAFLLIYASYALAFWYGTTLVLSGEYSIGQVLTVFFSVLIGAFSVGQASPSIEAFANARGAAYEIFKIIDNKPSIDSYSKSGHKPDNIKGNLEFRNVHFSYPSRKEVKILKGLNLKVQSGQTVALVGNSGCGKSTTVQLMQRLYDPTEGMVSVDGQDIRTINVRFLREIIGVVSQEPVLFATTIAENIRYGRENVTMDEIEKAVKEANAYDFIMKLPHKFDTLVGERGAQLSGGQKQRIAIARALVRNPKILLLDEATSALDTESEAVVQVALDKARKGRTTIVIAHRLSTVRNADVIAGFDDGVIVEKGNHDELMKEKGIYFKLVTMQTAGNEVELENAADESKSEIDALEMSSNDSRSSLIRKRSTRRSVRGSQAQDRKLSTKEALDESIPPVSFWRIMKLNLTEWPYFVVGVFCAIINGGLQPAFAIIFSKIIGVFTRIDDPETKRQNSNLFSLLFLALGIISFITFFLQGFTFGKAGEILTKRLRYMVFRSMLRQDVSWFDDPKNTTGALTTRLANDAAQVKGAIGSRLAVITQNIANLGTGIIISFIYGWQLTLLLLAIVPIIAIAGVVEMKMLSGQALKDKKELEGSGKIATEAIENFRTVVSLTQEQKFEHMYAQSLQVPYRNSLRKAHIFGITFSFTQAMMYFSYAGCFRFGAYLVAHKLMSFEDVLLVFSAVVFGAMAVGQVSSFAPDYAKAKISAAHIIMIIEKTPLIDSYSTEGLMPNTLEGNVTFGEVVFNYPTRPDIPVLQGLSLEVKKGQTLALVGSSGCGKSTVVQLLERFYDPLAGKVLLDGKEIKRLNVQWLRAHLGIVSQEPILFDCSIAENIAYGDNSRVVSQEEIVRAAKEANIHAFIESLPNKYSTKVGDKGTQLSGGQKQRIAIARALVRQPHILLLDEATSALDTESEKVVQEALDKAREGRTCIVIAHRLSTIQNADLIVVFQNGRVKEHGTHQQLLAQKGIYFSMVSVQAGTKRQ

As to `COc1ccc(NC(=O)CSc2nc3c(C)c(C#N)ncc3[nH]2)cc1OP(=O)(O)O` [Compound 107-02, 5-(2-((6-Cyano-7-methyl-3H-imidazo[4,5-c]pyridin-2-yl)thio)acetamido)-2-methoxyphenyl dihydrogen phosphate], in data set [1] (Table 2, FIG. 7, 100 μM drug, 1.0 μg ENPP1, NT 60.05), the “Tm (° C.)” value came to 63.89 °C. The ΔTm (commonly the shift of the melting midpoint relative to a reference) at 100 µM in data set [1] (read-out: ΔTm (° C.)) stood at 3.84 °C. For the same compound, the total mineralization result in [2] is listed as “significant decrease”. Also, the IRF-3 response entry in data set [3] is listed as “significant increase”. The enzymatic activity result in data set [4] was “significant decrease”. Further, the IC50 – broadly, the concentration that inhibits the measured activity by half – in data set [5] was 0.742 µM. The IC50 in [6] came out at 0.211 µM. The solubility – broadly, how much of the substance goes into solution per volume – in data set [7] was determined as 640 µg/mL. The logP (as a rule, a log measure of how a compound divides between an organic and an aqueous phase) in [7] (pH 7.4) is 0.009. In addition, the Caco2 in data set [8] (first entry (Caco2)) is recorded as −5.28. The same compound registered a Caco-2 in data set [8] (second entry (Caco-2)) of −4.867. In [9], the “PgP Inhibition” value is on record as “Negative”. The Selectivity entry in data set [10] is given as “Highly selective ENPPi”. Moreover, the “Mouse PK Profile CO” value in data set [11] worked out at 2840.69 ng/mL. In data set [11] (plasma), the AUC(0-t) (in general, the area under the concentration-time curve up to a stated or last time point) was 1640 ng·h/mL and the half-life (as a rule, the time needed for the level to fall by half in the phase considered) is 1.83 h. Besides, the AUC(0-inf) in [11] (plasma, read-out: AUCINF obs) was determined as 1650 ng·h/mL. Also, in data set [11] (plasma, read-out: CL obs), the clearance was 22.1 mL/min/kg. For the same compound, the “tumor growth of KPC mouse model of PDAC” value in [12] is “inhibits tumor growth”.
